Reference: the NIST ThermoML archive (doi:10.1016/j.jct.2013.05.019)
± gives the expanded uncertainty stated by the source.

Settings: Liquid; for viscosity: Falling or rolling sphere viscometry; for mass density: Vibrating tube method; for electrical conductivity: Alternating current cell with electrodes

| viscosity (293.15 K, 101 kPa) [mPa·s] | mass density (293.15 K, 101 kPa) [kg/m3] | electrical conductivity (298.15 K, 101 kPa) [S/m] | viscosity (298.15 K, 101 kPa) [mPa·s] | mass density (298.15 K, 101 kPa) [kg/m3] | viscosity (303.15 K, 101 kPa) [mPa·s] | mass density (303.15 K, 101 kPa) [kg/m3] | viscosity (308.15 K, 101 kPa) [mPa·s] | mass density (308.15 K, 101 kPa) [kg/m3] | viscosity (313.15 K, 101 kPa) [mPa·s] | mass density (313.15 K, 101 kPa) [kg/m3] | viscosity (293.15 K, 101.33 kPa) [mPa·s] | viscosity (298.15 K, 101.33 kPa) [mPa·s] | viscosity (303.15 K, 101.33 kPa) [mPa·s] | viscosity (308.15 K, 101.33 kPa) [mPa·s] | viscosity (313.15 K, 101.33 kPa) [mPa·s] | SMILES |
| --- | --- | --- | --- | --- | --- | --- | --- | --- | --- | --- | --- | --- | --- | --- | --- | --- |
| 771.69 ± 71 | 959.61 ± 0.23 | 0.021 ± 0.001 | 546.35 ± 44 | 956.44 ± 0.23 | 397.17 ± 28 | 953.33 ± 0.23 | 294.59 ± 18 | 950.15 ± 0.23 | 222.24 ± 11 | 946.98 ± 0.23 |  |  |  |  |  | CC(=O)O.CCCCN [butylammonium acetate] |
| 111.35 ± 3.6 | 1104.68 ± 0.31 | 0.867 ± 0.017 | 89.95 ± 2.5 | 1101.52 ± 0.31 | 73.04 ± 1.8 | 1098.38 ± 0.31 | 60.25 ± 1.3 | 1095.26 ± 0.31 | 50.12 ± 1.1 | 1092.17 ± 0.3 |  |  |  |  |  | CCCC[NH3+].O=[N+]([O-])[O-] [n-butylammonium nitrate] |
|  |  |  |  |  |  |  |  |  |  |  | 1.002 ± 0.021 | 0.89 ± 0.019 | 0.797 ± 0.017 | 0.718 ± 0.015 | 0.651 ± 0.014 | O [water] |
